# Measurements taken from patent US20220395464A1, “ORALLY ADMINISTERED SOLID DOSAGE FORM DRUG” (ASCENTAWITS PHARMACEUTICALS, LTD., priority 2019, published 2022).
# Several values for one entry are separate records, joined by “and”; a condition that tells them apart may be missing. Identical values can stand only once. Like-named read-outs stand apart in the source and are kept apart here.
# Assay: Pharmacokinetics after single intravenous drip infusion, plasma LC-MS/MS
# Assay type: in vivo, Philippine macaques
# Conditions: for Plasma-drug concentration: AST-3424-D6 intravenous drip infusion 0.42 mg/kg
# Protocol: AST-3424 and AST-3424-D6 (i.e. the compound of formula I) were administered to Philippine macaques by intravenous drip infusion, and blood samples were collected at different appointed times. LC-MS/MS was used to determine concentrations of the test substances in plasma of the Philippine macaques after administration, and relevant pharmacokinetic parameters were calculated.
# Preparation method: 0.447 ml of AST-3424 (0.2 mg/ml) and 0.481 ml of AST-3424-D6 (0.2 mg/ml) were added into 104.272 ml of the dissolvent, respectively, and mixed for 5 minutes to obtain colorless and clarified solutions with pH 7.0.
# The four male Philippine macaques were purchased from Guangxi Xiongsen Primate Development Experiment Co., Ltd. All Philippine macaques were healthy with qualified medical examination and no abnormality. Three of animals were used for the experiment, and one of them was used to prepare blank plasma.
# About 0.8 ml of blood samples were collected through femoral vein and anticoagulated with heparin sodium. Appointed times of blood collection were before administration, 0.17, 0.25, 0.5, 0.75, 1, 2, and 4 hours after administration.
# The blood samples were placed on ice after collection. Next, plasma samples were separated by centrifugation, and centrifugation conditions were 3500 rpm for 10 minutes at 4° C. Then, the collected plasma samples were stored at −80° C. until analysis. The plasma samples were analyzed by LC-MS/MS by an analysis department of an experimental institution. Besides, Lower limit of quantifications (LLOQ) of AST-3424 and AST-3424-D6 detection were 1 ng/ml. The accuracy of analysis results of an accompanying standard curve and a quality control samples all met the relevant requirements of biological analysis (the accuracy of the quality control samples exceeding 66.7% was between 85˜115%) in a process of the sample detection.
# According to average blood concentration data of each group at each appointed time, the pharmacokinetic parameters of the compounds were respectively computed by a pharmacokinetic computing software, a non-compartmental model. In addition, the pharmacokinetic parameters were AUC0-t, AUC0-∞, MRT0-∞, Cmax, Tmax, t1/2, etc. In the case of the concentrations of the samples whose concentration being lower than a lower limit of quantification, the following schemes were used to compute the pharmacokinetic parameters. The samples sampled before reaching Cmax shall be computed as zero value, while the samples sampled after reaching Cmax shall be computed as non-quantifiable (marked as “BLQ”).
# After a single intravenous infusion of the compounds AST-3424 and AST-3424-D6 was administered to the Philippine macaques, the whole blood samples of the corresponding animals were collected at the appointed times. Next, the whole blood samples were processed and biologically analyzed to obtain concentrations of the compounds in the plasma at the different appointed times. Results of the assay were listed in Table 14 below, and corresponding means of the plasma-drug concentration-time curves are shown in FIG. 3.
# According to the plasma-drug concentration data of each drug group, the pharmacokinetic parameters of each compound group were computed using the non-compartmental model of the pharmacokinetic computing software. The pharmacokinetic
# [1] = AST-3424-D6 single intravenous infusion, Table 15 heading 0.58 mg/kg (text: 0.42 mg/kg), plasma, individual animals 101, 102, 103
smiles,measurement,setting,value
[2H]C([2H])([2H])N(C(=O)c1cccc(Oc2cc([C@H](C)OP(=O)(N3CC3)N3CC3)ccc2[N+](=O)[O-])c1)C([2H])([2H])[2H] [AST-3424-D6],Plasma-drug concentration,"0.17 hr, individual animals 101, 102, 103",573.76 ng/mL and 478.95 ng/mL
same,Plasma-drug concentration,"0.25 hr, individual animals 101, 102, 103",528.54 ng/mL and 508.71 ng/mL
same,Plasma-drug concentration,"0.5 hr, individual animals 101, 102, 103",533.71 ng/mL and 487.88 ng/mL
same,Plasma-drug concentration,"0.75 hr, individual animals 101, 102, 103",122.04 ng/mL and 91.24 ng/mL
same,Plasma-drug concentration,"1 hr, individual animals 101, 102, 103",36.24 ng/mL and 24.30 ng/mL
same,Plasma-drug concentration,"2 hr, individual animals 101, 102, 103, LLOQ 1 ng/ml",BLQ
same,Plasma-drug concentration,"4 hr, individual animals 101, 102, 103, LLOQ 1 ng/ml",BLQ
same,AUC(0−t),[1],327.39 ng·h/mL and 291.62 ng·h/mL
same,AUC(0−∞),[1],295.67 ng·h/mL
same,Cl,[1],23.6747 mL/min/kg
same,Cmax,[1],573.76 ng/mL and 508.71 ng/mL
same,T1/2,[1],7.2 min
same,Tmax,[1],30 min and 10.2 min and 15 min
same,Vss,[1],0.20706 L/kg
same,Vz,[1],0.23679 L/kg
same,"Integral area under the drug-time curve (AUC) compared with AST-3424, in words","Philippine macaques, FIG. 3, 0.42 mg/kg AST-3424-D6 vs 0.58 mg/kg AST-3424",smaller
same,AUC(0-t),"male, Philippine macaque, cynomolgus monkey, plasma, iv, 0.42 mg/kg, AST-3424-D6 single intravenous infusion, Table 15 heading 0.58 mg/kg (text: 0.42 mg/kg), plasma, individual animals 101, 102, 103, read-out: AUC(0−t)",286 ng·h/mL
same,AUC(0-inf),"male, Philippine macaque, cynomolgus monkey, plasma, iv, 0.42 mg/kg, AST-3424-D6 single intravenous infusion, Table 15 heading 0.58 mg/kg (text: 0.42 mg/kg), plasma, individual animals 101, 102, 103, read-out: AUC(0−∞)",334 ng·h/mL
same,clearance,"male, Philippine macaque, cynomolgus monkey, plasma, iv, 0.42 mg/kg, AST-3424-D6 single intravenous infusion, Table 15 heading 0.58 mg/kg (text: 0.42 mg/kg), plasma, individual animals 101, 102, 103, read-out: Cl (converted)",20.9 mL/min/kg
same,Cmax,"male, Philippine macaque, cynomolgus monkey, plasma, iv, 0.42 mg/kg, AST-3424-D6 single intravenous infusion, Table 15 heading 0.58 mg/kg (text: 0.42 mg/kg), plasma, individual animals 101, 102, 103, read-out: Cmax",485 ng/mL
same,MRT last,"male, Philippine macaque, cynomolgus monkey, plasma, iv, 0.42 mg/kg, AST-3424-D6 single intravenous infusion, Table 15 heading 0.58 mg/kg (text: 0.42 mg/kg), plasma, individual animals 101, 102, 103, read-out: MRT(0−t)",9 min
same,MRT inf,"male, Philippine macaque, cynomolgus monkey, plasma, iv, 0.42 mg/kg, AST-3424-D6 single intravenous infusion, Table 15 heading 0.58 mg/kg (text: 0.42 mg/kg), plasma, individual animals 101, 102, 103, read-out: MRT(0−∞)",9.6 min
same,half-life,"male, Philippine macaque, cynomolgus monkey, plasma, iv, 0.42 mg/kg, AST-3424-D6 single intravenous infusion, Table 15 heading 0.58 mg/kg (text: 0.42 mg/kg), plasma, individual animals 101, 102, 103, read-out: T1/2 (converted)",7.8 min
same,Vd,"male, Philippine macaque, cynomolgus monkey, plasma, iv, 0.42 mg/kg, AST-3424-D6 single intravenous infusion, Table 15 heading 0.58 mg/kg (text: 0.42 mg/kg), plasma, individual animals 101, 102, 103, read-out: Vss",0.198 L/kg
same,Vd,"male, Philippine macaque, cynomolgus monkey, plasma, iv, 0.42 mg/kg, AST-3424-D6 single intravenous infusion, Table 15 heading 0.58 mg/kg (text: 0.42 mg/kg), plasma, individual animals 101, 102, 103, read-out: Vz",0.234 L/kg
same,AUC(0-t),"male, Philippine macaque, cynomolgus monkey, plasma, iv, 0.42 mg/kg, AST-3424-D6 single intravenous infusion, Table 15 heading 0.58 mg/kg (text: 0.42 mg/kg), plasma, read-out: AUC(0−t), Mean",302 ± 22.6 ng·h/mL
same,AUC(0-inf),"male, Philippine macaque, cynomolgus monkey, plasma, iv, 0.42 mg/kg, AST-3424-D6 single intravenous infusion, Table 15 heading 0.58 mg/kg (text: 0.42 mg/kg), plasma, read-out: AUC(0−∞), Mean",315 ± 27.2 ng·h/mL
same,Cmax,"male, Philippine macaque, cynomolgus monkey, plasma, iv, 0.42 mg/kg, AST-3424-D6 single intravenous infusion, Table 15 heading 0.58 mg/kg (text: 0.42 mg/kg), plasma, read-out: Cmax, Mean",522 ± 46 ng/mL
same,MRT last,"male, Philippine macaque, cynomolgus monkey, plasma, iv, 0.42 mg/kg, AST-3424-D6 single intravenous infusion, Table 15 heading 0.58 mg/kg (text: 0.42 mg/kg), plasma, read-out: MRT(0−t), Mean",8.4 ± 0.6 min
same,MRT inf,"male, Philippine macaque, cynomolgus monkey, plasma, iv, 0.42 mg/kg, AST-3424-D6 single intravenous infusion, Table 15 heading 0.58 mg/kg (text: 0.42 mg/kg), plasma, read-out: MRT(0−∞), Mean",9 min
